Consider two compounds from PMC8786250, “Comparison of chemical profiles, antioxidation, inhibition of skin extracellular matrix degradation, and anti-tyrosinase activity between mycelium and fruiting body of Cordyceps militaris and Isaria tenuipes” (Pharmaceutical Biology, 2022).

Test [1] concerns the target T1, elastase from porcine pancreas (Sus scrofa, UniProt P00772).
T1 construct: gene CELA1; native enzyme from pancreas, lyophilised powder (Sigma-Aldrich); mature form
In words: spectrophotometric elastase inhibition assay. The format is biochemical. The note with it: read-out: IC50 (mg/mL) / Elastase inhibition (converted). An excerpt: spectrophotometric elastase inhibition assay on elastase from porcine pancreas

For test [2], the target named is T2, metalloproteinase-1 (MMP-1) from Clostridium histolyticum (ChC).
T2 construct: gene colG; native collagenase preparation (Sigma-Aldrich)
In words: spectrophotometric MMP-1 (collagenase) inhibition assay. It counts as biochemical, Hathewaya histolytica. The note with it: substrate FALGPA; positive control. An excerpt: spectrophotometric MMP-1 (collagenase) inhibition assay on metalloproteinase-1 (MMP-1) from Clostridium histolyticum (ChC)

Converted amounts (≈) assume the structure as drawn.

T1 sequence (P00772 27-266): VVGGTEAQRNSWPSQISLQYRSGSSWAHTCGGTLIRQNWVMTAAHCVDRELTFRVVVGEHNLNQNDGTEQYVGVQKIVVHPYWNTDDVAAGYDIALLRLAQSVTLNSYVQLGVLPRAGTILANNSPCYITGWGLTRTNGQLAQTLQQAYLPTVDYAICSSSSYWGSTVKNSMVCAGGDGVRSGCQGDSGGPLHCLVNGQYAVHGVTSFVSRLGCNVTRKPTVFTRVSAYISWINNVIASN

On to `O=C(O[C@@H]1Cc2c(O)cc(O)cc2O[C@@H]1c1cc(O)c(O)c(O)c1)c1cc(O)c(O)c(O)c1` [EGCG, epigallocatechin gallate], for which the IC50 in test [1] is 2.18 µM.
On to `CC1(C)CC[C@]2(C(=O)O)CC[C@]3(C)C(=CC[C@@H]4[C@@]5(C)CC[C@H](O)C(C)(C)[C@@H]5CC[C@]43C)[C@@H]2C1` [OA, oleanolic acid], for which the “IC50 (mg/mL) / MMP-1 inhibition” value in test [2] came to 0.002 ± 0.000 mg/mL (≈ 4.38 µM).
